Measurements published in patent publication US4132778A, “Antibiotic A-32887” (Eli Lilly and Company, priority 1977, dated 1979).

Key:
[1] = Ion binding / ion transport (ionophore)
Description: A-32887 can be used when the selective removal of particular cations is desired. Examples of such uses include the removal and recovery of silver ions from solutions in photography, the removal of toxic cations from industrial waste streams before such streams are discharged to the environment, and desalinization of sea water. A-32887 can be used as one component of an ion-specific electrode (O. Kedem, et al., U.S. Pat. No. 3,753,887, Aug. 21, 1973, Alkali metal specific measuring electrode). […] A-32887 can be used, therefore, as a component in a membrane used for the selective transport of cations against a concentration gradient. One potential application of this property is in recovery of heavy and precious metals on a commercial basis [see E. L. Cussler, D. F. Evans, and Sister M. A. Matesick, Science 172, 377 (1971)].

Micrococcus lutea = assay: Conventional disc-diffusion method, Table VIII; assay type: cell-based; details: each as Na-K salts
Procedure: (§1) The antimicrobial activity of two typical A-32887 acyl ester derivatives is compared with that of A-32887 (each as Na-K salts) in Table VIII. Activity against illustrative bacteria is measured by the conventional disc-diffusion method. In addition, the results of a conventional paper-disc agar-diffusion assay system (Plate Assay) against Bacillus subtilis ATCC 6633 are reported. […] The samples were assayed at 1 mg/ml.

Bacillus subtilis [2] = assay: Conventional disc-diffusion method, Table VIII; assay type: cell-based; details: each as Na-K salts
Procedure: as §1

Staphylococcus aureus = assay: Conventional disc-diffusion method, Table VIII; assay type: cell-based; details: each as Na-K salts
Procedure: as §1

Bacillus subtilis [3] = assay: Conventional disc-diffusion method, minimal media, Table VIII; assay type: cell-based; details: each as Na-K salts
[4] = tested on: Infectious Canine Hepatitis virus; assay: In vitro plaque suppression test
[5] = tested on: Transmissible Gastroenteritis virus; assay: In vitro plaque suppression test
[6] = tested on: type B influenza virus (Maryland, dog kidney); assay: In vitro plaque suppression test; assay type: cell-based

SMILES: CO[C@H]1CC[C@H](OC2[C@@H](C)[C@@](C)(O)O[C@H]([C@H]3CC[C@H]([C@@H]4CC[C@H]([C@@]5(C)O[C@]6(O[C@H](C[C@@H]7O[C@](O)([C@@H](O)C(=O)O)[C@@H](C)[C@H](OC)[C@@]7(C)OC)C[C@@H](OC)[C@H]6C)[C@H](C)[C@H]5OC)O4)O3)[C@H]2C)O[C@@H]1C.[K+].[Na+] (stereo partly drawn) [A-32887]
- cation permeability of natural and artificial membranes [1]: alters the cation permeability of both natural and artificial membranes
- ion-binding and ion-transport properties [1]: exhibits ion-binding and ion-transport properties
- activity by disc-diffusion, Micrococcus lutea (Micrococcus lutea): 16
- activity by disc-diffusion, Bacillus subtilis (Bacillus subtilis [2]): 18
- activity by disc-diffusion, Staphylococcus aureus (Staphylococcus aureus): 16
- activity by disc-diffusion, Bacillus subtilis (Bacillus subtilis [3]): 30
- antiviral activity [4]: active
- antiviral activity [5]: active
- antiviral activity [6]: active
